Patent US20260373248A1, “DEGRADABLE PEPTOIDS” (Medici Therapeutics, Inc., priority 2023, published 2026)
Starred links: 1 amine or outer side, 2 acyl side, 3 side chain; linkers in the order of their positions; H or OH if unused. Non-standard residues stand in square brackets, D forms with d. Residues, ends and D or L forms follow the SMILES beside them. *: point of attachment. Gly(N-(3-decanoyloxypropyl)) = CCCCCCCCCC(=O)OCCCNCC(=O)O; N(2-decanoyloxyethyl)Gly = CCCCCCCCCC(=O)OCCNCC(=O)O; Gly(N-(CH2)3O-octanoyl) = CCCCCCCC(=O)OCCCNCC(=O)O; N(3-imidazol-1-ylpropyl)Gly = O=C(O)CNCCCn1ccnc1; Gly(N-3-morpholinopropyl) = O=C(O)CNCCCN1CCOCC1; X5 = CCCCC(CC)C(=O)OCCCCCCN(CC(=O)[*:2])[*:1]; X4 = CCCCCCCCCCCC(=O)OCCN(CC(=O)[*:2])[*:1]; N(2-ethylhexyl)Gly = CCCCC(CC)CNCC(=O)O; X6 = CCCCCCCC(=O)OCCN(CC(=O)[*:2])[*:1]; X1 = CCCCC(CC)CSSCCN(CC(=O)[*:2])[*:1]; X7 = CCCCCCCCCCSSCCN(CC(=O)[*:2])[*:1]; Gly(N-dodecyl) = CCCCCCCCCCCCNCC(=O)O; N(CH(CH2OH)2)Gly = O=C(O)CNC(CO)CO; N(octyl)Gly = CCCCCCCCNCC(=O)O; NDecylGly = CCCCCCCCCCNCC(=O)O; For = O=C*

Assays:
[1] = system: firefly luciferase; test: In vivo firefly luciferase expression after intravenous injection of fLuc mRNA delivery vehicles (IVIS imaging); design: species or system female Balb/c mice; settings: mice, 2.5 ug fLuc mRNA intravenously, 6 hours post-injection
Experimental: (§1) All animal studies were conducted under accreditation by the California State Department of Public Health and under supervision of IACUC and Veterinarian Supervision. For imaging studies, female Balb/c mice (6-8 weeks old) were obtained and acclimatized for a minimum of 3 days prior to experiments. The animals were maintained on a 12 hour light cycle in a temperature and humidity controlled room. A daily health check was performed as well as food and water check. For dosing, mice were injected with 2.5 ug fLuc mRNA-containing Nutshells intravenously in 100 μL total injection value. At 6 hours post-injection, mice were anesthetized with isoflurane, injected IP with 30 mg/mL D-luciferin at a dose of 10 μL per gram bodyweight intraperitoneally. Imaging was done 10 minutes post D-luciferin injection using an IVIS Spectrum Imaging System (Caliper Life Sciences). Immediately after in vivo imaging, mice were terminally bled by cardiac puncture and euthanized. The organs of interest were harvested, placed in black 24-well plates, and imaged. Living Image software (Perkin Elmer) was used to quantify the total photon flux in regions of interest.
Luciferase expression in these formulations was also determined as described in Example 4.

[2] = system: luciferase; test: Luciferase expression after local (intramuscular or subcutaneous) administration of mRNA; format: in vivo; settings: mRNA 0.01 mpk, 6 hours; for IM Flux: intramuscular; for SC Flux: subcutaneous
Experimental: as §1
Aminolipidated peptoids were also effective for local administration of mRNA through subcutaneous (S.C.) or intramuscular (I.M.) routes of administration. For these examples, mRNA was administered at a dose of 0.1 mpk for intratomoral, or 0.01 mpk for subcutaneous and intramuscular administration, and the resulting bioluminescence quantified after 6 hours according to a similar procedure as described in Example 4.

[3] = Delivery vehicle size and polydispersity by dynamic light scattering; format: physicochemical; settings: DLS in PBS; peptoid:DSPC:Cholesterol:DMG-PEG2000 weight ratio 20:1.79:7.16:1.84, mRNA
Experimental: Delivery vehicles were formulated by rapid microfluidic mixing using a high throughput microfluidic system. Briefly, ethanol solutions containing peptoid, DSPC, Cholesterol, DMG-PEG2000 at weight ratio of 20:1.79:7.16:1.84, were mixed with 10 mM sodium citrate buffer (pH 5.0) containing synthesized mRNA at a ratio of 1:3 by volume. Peptoid based LNPs were subsequently dialyzed against 1-2 liters of tris-sucrose buffer (TS7, pH 7.4) overnight at 4 °C. Delivery vehicle size and polydispersity (PDI) was measured by dynamic light scattering in PBS.
(§2) Degradable peptoids described herein were formulated as various formulations described in Table 3 according to the procedure described in Example 2. Particle size was characterized as described in Example 2, and […] encapsulation of mRNA was determined as described in Example 3.

[4] = system: mRNA; test: mRNA encapsulation (modified Quant-iT RiboGreen assay); format: physicochemical; settings: RiboGreen, without vs with Triton X-100
Experimental: The mRNA concentration and the percentage of encapsulated mRNA were determined using fluorescent-based Quant-iT RiboGreen RNA Reagent Kit (Life Technologies, Waltham, MA) as described previously. To determine the mRNA concentration, PNPs was incubated with […] for 10 min to release entrapped mRNA, followed by addition of RiboGreen RNA reagent. The fluorescence intensity of mRNA-RiboGreen reagent complex (excitation at 485 nm and emission at 530 nm) was detected using a microplate reader. The ratio of fluorescence without and with Triton X-100 were used to calculate the percentage of encapsulated mRNA.
as §2

SMILES	PDI [3]	Particle Size [3] [nm]	mean percent encapsulation of RNA [4] [%]	Total Flux [1] [p/s]	IM Flux [2] [p/s]	SC Flux [2] [p/s]
CCCCCCCCCCSSCCN(CC(=O)N(CC(N)=O)CC(CC)CCCC)C(=O)CN(CC(CC)CCCC)C(=O)CN(CC(CC)CCCC)C(=O)CN(CCCCCCCCCC)C(=O)CN(CC(CC)CCCC)C(=O)CNC(CO)CO (stereo not shown) [Compound 36] (H-[N(CH(CH2OH)2)Gly][N(2-ethylhexyl)Gly][NDecylGly][N(2-ethylhexyl)Gly][N(2-ethylhexyl)Gly][X7][N(2-ethylhexyl)Gly]-NH2)				3.51E+09		
CCCCCCCCCC(=O)OCCCN(CC(=O)N(CCSSCC(CC)CCCC)CC(N)=O)C(=O)CN(CCCCCCCC)C(=O)CN(CCSSCC(CC)CCCC)C(=O)CN(CCCOC(=O)CCCCCCCCC)C(=O)CN(CCCCCCCC)C(=O)CNC(CO)CO (stereo not shown) [Compound 129] (H-[N(CH(CH2OH)2)Gly][N(octyl)Gly][Gly(N-(3-decanoyloxypropyl))][X1][N(octyl)Gly][Gly(N-(3-decanoyloxypropyl))][X1]-NH2)	0.101	61.2	89.2	1.06E+09	2.00E+08	3.41E+08
CCCCCCCCCC(=O)OCCCN(C=O)CC(=O)N(CC(=O)N(CCCOC(=O)CCCCCCCCC)CC(=O)N(CCCN1CCOCC1)CC(=O)N(CCCOC(=O)CCCCCCCCC)CC(=O)N(CC(=O)N(CCCOC(=O)CCCCCCCCC)CC(N)=O)CC(CC)CCCC)CC(CC)CCCC (stereo not shown) [Compound 121] (For-[Gly(N-(3-decanoyloxypropyl))][N(2-ethylhexyl)Gly][Gly(N-(3-decanoyloxypropyl))][Gly(N-3-morpholinopropyl)][Gly(N-(3-decanoyloxypropyl))][N(2-ethylhexyl)Gly][Gly(N-(3-decanoyloxypropyl))]-NH2)	0.166	82.9	72.1		4.54E+07	5.20E+07
CCCCCCCC(=O)OCCN(CC(=O)N(CC(=O)N(CC(=O)N(CCOC(=O)CCCCCCC)CC(=O)N(CC(N)=O)CC(CC)CCCC)CC(CC)CCCC)CC(CC)CCCC)C(=O)CN(CC(CC)CCCC)C(=O)CNC(CO)CO (stereo not shown) [Compound 1] (H-[N(CH(CH2OH)2)Gly][N(2-ethylhexyl)Gly][X6][N(2-ethylhexyl)Gly][N(2-ethylhexyl)Gly][X6][N(2-ethylhexyl)Gly]-NH2)	0.094	79.7	93.0	7.71E+08		
CCCCCCCCCCCC(=O)OCCN(CC(=O)N(CC(=O)N(CC(=O)N(CCOC(=O)CCCCCCCCCCC)CC(=O)N(CC(N)=O)CC(CC)CCCC)CC(CC)CCCC)CC(CC)CCCC)C(=O)CN(CC(CC)CCCC)C(=O)CNC(CO)CO (stereo not shown) [Compound 3] (H-[N(CH(CH2OH)2)Gly][N(2-ethylhexyl)Gly][X4][N(2-ethylhexyl)Gly][N(2-ethylhexyl)Gly][X4][N(2-ethylhexyl)Gly]-NH2)	0.076	74.6	63.8	6.66E+08		
CCCCCCCCCCCCN(CC(=O)N(CC(N)=O)CC(CC)CCCC)C(=O)CN(CCCCCCCC)C(=O)CN(CC(CC)CCCC)C(=O)CN(CCCCCCOC(=O)C(CC)CCCC)C(=O)CN(CCCCCCCC)C(=O)CNC(CO)CO (stereo not shown) [Compound 31] (H-[N(CH(CH2OH)2)Gly][N(octyl)Gly][X5][N(2-ethylhexyl)Gly][N(octyl)Gly][Gly(N-dodecyl)][N(2-ethylhexyl)Gly]-NH2)	0.091	72.9	91.4	1.11E+09		
CCCCCCCCCC(=O)OCCCN(CC(=O)N(CC(N)=O)CC(CC)CCCC)C(=O)CN(CCCCCCCC)C(=O)CN(CC(CC)CCCC)C(=O)CN(CCCOC(=O)CCCCCCCCC)C(=O)CN(CCCCCCCC)C(=O)CNCCCn1ccnc1 (stereo not shown) [Compound 111] (H-[N(3-imidazol-1-ylpropyl)Gly][N(octyl)Gly][Gly(N-(3-decanoyloxypropyl))][N(2-ethylhexyl)Gly][N(octyl)Gly][Gly(N-(3-decanoyloxypropyl))][N(2-ethylhexyl)Gly]-NH2)	0.148	105.5	72.3	3.16E+08	4.89E+07	6.25E+07
CCCCCCCCCCCCN(CC(=O)N(CC(N)=O)CC(CC)CCCC)C(=O)CN(CC(CC)CCCC)C(=O)CN(CC(CC)CCCC)C(=O)CN(CCCOC(=O)CCCCCCC)C(=O)CN(CC(CC)CCCC)C(=O)CNC(CO)CO (stereo not shown) [Compound 14] (H-[N(CH(CH2OH)2)Gly][N(2-ethylhexyl)Gly][Gly(N-(CH2)3O-octanoyl)][N(2-ethylhexyl)Gly][N(2-ethylhexyl)Gly][Gly(N-dodecyl)][N(2-ethylhexyl)Gly]-NH2)	0.090	72.1	90.3	4.76E+08		

Continued, in another order:

PDI [3]	Particle Size [3] [nm]	mean percent encapsulation of RNA [4] [%]	SMILES	Total Flux [1] [p/s]	IM Flux [2] [p/s]	SC Flux [2] [p/s]
0.083	76.9	86.7	CCCCCCCC(=O)OCCCN(C=O)CC(=O)N(CCCOC(=O)CCCCCCC)CC(=O)N(CCSSCC(CC)CCCC)CC(=O)N(CCCN1CCOCC1)CC(=O)N(CCSSCC(CC)CCCC)CC(=O)N(CCCOC(=O)CCCCCCC)CC(=O)N(CCCOC(=O)CCCCCCC)CC(N)=O (stereo not shown) [Compound 133] (For-[Gly(N-(CH2)3O-octanoyl)][Gly(N-(CH2)3O-octanoyl)][X1][Gly(N-3-morpholinopropyl)][X1][Gly(N-(CH2)3O-octanoyl)][Gly(N-(CH2)3O-octanoyl)]-NH2)	2.80E+08	1.08E+07	3.73E+07
0.090	86.0	74.2	CCCCCCCCN(C=O)CC(=O)N(CCCOC(=O)CCCCCCC)CC(=O)N(CCSSCC(CC)CCCC)CC(=O)N(CCCN1CCOCC1)CC(=O)N(CCSSCC(CC)CCCC)CC(=O)N(CCCOC(=O)CCCCCCC)CC(=O)N(CCCCCCCC)CC(N)=O (stereo not shown) [Compound 132] (For-[N(octyl)Gly][Gly(N-(CH2)3O-octanoyl)][X1][Gly(N-3-morpholinopropyl)][X1][Gly(N-(CH2)3O-octanoyl)][N(octyl)Gly]-NH2)	1.31E+10	4.62E+08	6.94E+08
0.158	59.2	91.4	CCCCCCCCCC(=O)OCCN(CC(=O)N(CCOC(=O)CCCCCCCCC)CC(=O)N(CCSSCC(CC)CCCC)CC(=O)N(CCOC(=O)CCCCCCCCC)CC(=O)N(CCOC(=O)CCCCCCCCC)CC(=O)N(CCSSCC(CC)CCCC)CC(N)=O)C(=O)CNC(CO)CO (stereo not shown) [Compound 135] (H-[N(CH(CH2OH)2)Gly][N(2-decanoyloxyethyl)Gly][N(2-decanoyloxyethyl)Gly][X1][N(2-decanoyloxyethyl)Gly][N(2-decanoyloxyethyl)Gly][X1]-NH2)	8.92E+08	3.49E+08	5.56E+08
0.086	75.5	86.0	CCCCCCCCCCN(CC(=O)N(CCSSCC(CC)CCCC)CC(=O)N(CCCOC(=O)CCCCCCC)CC(N)=O)C(=O)CN(CCSSCC(CC)CCCC)C(=O)CN(CCCOC(=O)CCCCCCC)C(=O)CN(CC(CC)CCCC)C(=O)CNC(CO)CO (stereo not shown) [Compound 130] (H-[N(CH(CH2OH)2)Gly][N(2-ethylhexyl)Gly][Gly(N-(CH2)3O-octanoyl)][X1][NDecylGly][X1][Gly(N-(CH2)3O-octanoyl)]-NH2)	4.45E+09	2.72E+08	1.92E+08
